We go through 10 compounds from ChEMBL document CHEMBL4699553, “Synthesis and biological evaluation of chalcone derivatives as neuroprotective agents against glutamate-induced HT22 mouse hippocampal neuronal cell death” (Bioorg Med Chem Lett, 2020).

For data set [1], the system named is HT-22. Kind of data set: Neuroprotective activity against glutamate-induced cell death in mouse HT22 cells assessed as increase in cell viability at 0.15 to 38.46 uM incubated for 12 hrs by calcein-AM dye and propidium iodide staining based analysis. The conditions noted are these: dose microM 0.15-38.46, time 12.0 hrs. Format: functional.
For data set [2], the target named is T1, Nuclear factor erythroid 2-related factor 2 (Homo sapiens) (UniProt Q16236).
T1 sequence (whole entry): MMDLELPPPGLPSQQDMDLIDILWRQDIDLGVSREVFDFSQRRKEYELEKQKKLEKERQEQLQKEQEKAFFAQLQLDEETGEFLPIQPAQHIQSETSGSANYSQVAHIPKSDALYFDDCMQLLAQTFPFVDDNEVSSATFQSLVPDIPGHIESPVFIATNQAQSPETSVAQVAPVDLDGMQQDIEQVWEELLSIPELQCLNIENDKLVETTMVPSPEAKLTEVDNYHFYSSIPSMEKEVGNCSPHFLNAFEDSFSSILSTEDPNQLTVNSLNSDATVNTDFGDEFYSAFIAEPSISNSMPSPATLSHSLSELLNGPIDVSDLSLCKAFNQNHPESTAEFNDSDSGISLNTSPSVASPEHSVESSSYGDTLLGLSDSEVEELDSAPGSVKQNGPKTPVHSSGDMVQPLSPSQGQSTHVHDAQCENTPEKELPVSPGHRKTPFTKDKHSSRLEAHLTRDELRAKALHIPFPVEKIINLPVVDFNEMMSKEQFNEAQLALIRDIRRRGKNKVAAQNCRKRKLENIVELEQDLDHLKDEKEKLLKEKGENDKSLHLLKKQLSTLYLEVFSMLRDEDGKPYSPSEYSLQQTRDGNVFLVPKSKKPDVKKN
Kind of data set: Activation of Nrf2 in human HepG2 cells co-transfected with ARE luciferase gene assessed as increase in ARE-driven luciferase activity by luciferase reporter gene assay. Format: cell-based. The following applies: filed as activator. (In a reporter assay the amount or activity of a reporter protein is the signal.)

Data set [3] concerns HT-22. Kind of data set: Neuroprotective activity against glutamate-induced cell death in mouse HT22 cells assessed as cell viability at 12.8 uM incubated for 12 hrs by calcein AM dye and propidium iodide staining based analysis (reference value: 50%). The conditions noted are these: read-out: Activity. The format is functional.
Data set [4] in a line: Antioxidant activity assessed as DPPH radical scavenging activity. Format: functional. In general terms: DPPH is a stable violet radical that fades when it is reduced.
Data set [5] concerns HT-22. In words: Neuroprotective activity against glutamate-induced cell death in mouse HT22 cells assessed as live cells at 12.8 uM by Annexin-V FITC and propidium iodide staining based flow cytometric analysis (reference value: 15.03 %). The format is functional.
Data set [6] has as its system HT-22. Kind of data set: Neuroprotective activity against glutamate-induced cell death in mouse HT22 cells assessed as early apoptotic cells at 12.8 uM by Annexin-V FITC and propidium iodide staining based flow cytometric analysis (reference value: 79.84 %). The format is functional. For orientation: Flow cytometry measures light scatter and fluorescence of single cells or particles in a stream.

In data set [7] the test system is HT-22. Kind of data set: Neuroprotective activity against glutamate-induced cell death in mouse HT22 cells assessed as late apoptotic cells at 12.8 uM by Annexin-V FITC and propidium iodide staining based flow cytometric analysis (reference value: 4.62 %). The format is functional.
In data set [8] the test system is HT-22. Kind of data set: Neuroprotective activity against glutamate-induced cell death in mouse HT22 cells assessed as necrotic cells at 12.8 uM by Annexin-V FITC and propidium iodide staining based flow cytometric analysis (reference value: 0.51 %). The format is functional.
Data set [9] relates to HT-22. Kind of data set: Neuroprotective activity against glutamate-induced oxidative stress in mouse HT22 cells assessed as reduction in intracellular ROS accumulation at 12.8 uM by DCF-DA staining based fluorescence assay. The format is functional, cell-based.
Data set [10] has as its system HT-22. In words: Neuroprotection against glutamate-induced Ca2+ homeostasis disruption in mouse HT22 cells assessed as reduction in intracellular Ca2+ uptake at 1.4 to 12.8 uM by Fluo3-AM staining based fluorescent microscopic method. The conditions noted are these: dose microM 1.4-12.8. Format: functional, cell-based.
The test system of data set [11] is HT-22. Kind of data set: Inhibition of glutamate-induced JNK activation in mouse HT22 cells assessed as reduction in phosphorylated JNK protein level by Western blot analysis. The format is cell-based. The conditions noted are these: dose microM 1.4-12.8.
Data set [12] relates to HT-22. In words: Inhibition of glutamate-induced ERK activation in mouse HT22 cells assessed as reduction in phosphorylated ERK protein level by Western blot analysis. The format is cell-based. The following applies: dose microM 1.4-12.8.
Data set [13] deals with MAP kinase p38 (Mus musculus) (UniProt P47811+O08911+Q9WUI1+Q9Z1B7). Kind of data set: Inhibition of glutamate-induced p38 MAPK activation in mouse HT22 cells assessed as reduction in phosphorylated p38 MAPK protein level by Western blot analysis. The format is cell-based. The conditions noted are these: HT-22, dose microM 1.4-12.8.
In data set [14] the test system is HT-22. In words: Neuroprotection against glutamate-induced apoptosis in mouse HT22 cells assessed as reduction in bax protein level at 1.4 to 12.8 uM by Western blot analysis. The following applies: dose microM 1.4-12.8. Format: functional, cell-based.
Data set [15] relates to HT-22. Kind of data set: Neuroprotection against glutamate-induced apoptosis in mouse HT22 cells assessed as increase in bcl2 protein level at 1.4 to 12.8 uM by Western blot analysis. The format is functional, cell-based. The conditions noted are these: dose microM 1.4-12.8.
Data set [16] relates to HT-22. Kind of data set: Neuroprotection against glutamate-induced apoptosis in mouse HT22 cells assessed as decrease in translocation of AIF to nucleus at 12.8 uM by Western blot analysis. Format: functional, cell-based.
The subject of data set [17] is Caenorhabditis elegans. Kind of data set: Neuroprotective activity against 6-OHDA induced neuronal dysfunction in Caenorhabditis elegans N2 assessed as increase in number of body bending at 100 uM incubated for 1 hr and measured for 20 sec. The format is functional, organism-based.
A short description of data set [18]: Induction of apoptosis in mouse HT22 cells assessed as viable cells at 12.8 uM by Annexin-V FITC and propidium iodide staining based flow cytometric analysis (reference value: 87.05 %). The conditions noted are these: read-out: Activity. The format is cell-based, HT-22.
Data set [19] has as its system HT-22. Kind of data set: Induction of apoptosis in mouse HT22 cells assessed as early apoptotic cells at 12.8 uM by Annexin-V FITC and propidium iodide staining based flow cytometric analysis (reference value: 3.37 %). Format: cell-based. The following applies: ht-22, 12.8 µM.
Data set [20] relates to HT-22. In words: Induction of apoptosis in mouse HT22 cells assessed as late apoptotic cells at 12.8 uM by Annexin-V FITC and propidium iodide staining based flow cytometric analysis (reference value: 7.05 %). The format is cell-based. The following applies: ht-22, 12.8 µM.
Data set [21] relates to HT-22. Kind of data set: Induction of apoptosis in mouse HT22 cells assessed as necrotic cells at 12.8 uM by Annexin-V FITC and propidium iodide staining based flow cytometric analysis (reference value: 2.53 %). The format is cell-based. The conditions noted are these: ht-22, 12.8 µM.
Data set [22] concerns Hippocampus. In words: Inhibition of erastin induced ferroptotic-cell death in rat hippocampal culture by propidium iodide uptake based fluorescence analysis. The format is functional, tissue-based.
Data set [23] has as its system HT-22. In words: Neuroprotection against glutamate-induced apoptosis in mouse HT22 cells assessed as decrease in translocation of AIF to nucleus at 12.8 uM by immunostaining analysis. Format: functional, cell-based.

Activity calls are given as the source filed them. The rule behind the calls is not given here. Bounds are passed on as bounds.

In the case of `COc1ccc2c(c1)C(=O)/C(=C/c1ccc(O)cc1)CC2`, the outcome in data set [1] was inactive.
On the same count and under the same terms, the value for `COc1ccc2c(c1)C(=O)/C(=C/c1cc(OC)c(OC)c(OC)c1)CC2` was “Active”; that for `COc1ccc2c(c1)C(=O)/C(=C/c1cccc(O)c1)CC2` was “inactive”; that for `COc1ccc2c(c1)C(=O)/C(=C/c1ccc(N(C)C)cc1)CC2` was “Active”.
For the compound `COc1cc(OC)c(/C=C2\CCc3ccc(OC)cc3C2=O)c(OC)c1`, in data set [1], the result was Active.
Still for that read-out and setting: the value for `COc1ccc2c(c1)C(=O)/C(=C/c1cc(OC)c(Br)c(OC)c1)CC2` was “Active”; that for `COc1cccc(/C=C2\CCc3ccc(OC)cc3C2=O)c1` was “Active”; that for `COc1ccc2c(c1)C(=O)/C(=C/c1ccc(OC)c(OC)c1)CC2` was “Active”.
As for `COc1ccc2c(c1)C(=O)/C(=C/c1c[nH]c3ccccc13)CC2`, the outcome in data set [2], in [9], in [10], in data set [14], in [15] and in data set [16] was Active. Further, the result in [17] and in data set [23] was Active. Besides, the viability at 12.8 µM in [3] is over 80%; in data set [18], 88.2%. Moreover, the result in data set [4] was inactive. Moreover, the Activity in [5] is given as 91.37%; in [6], 1.03%; in data set [7], 5.92%; in [8], 1.68%; in data set [19], 0.95%; in data set [20] it was 8.72%. In addition, in data set [21], the Activity is 2.08%. Also, the inhibition result in data set [11], in data set [12] and in data set [13] was “Dose-dependent effect” each time. In addition, in data set [22], the inhibition result is “inactive”.
Take `COc1ccc2c(c1)C(=O)/C(=C/c1cc(OC)c(OC)cc1Br)CC2`: the outcome in [1] was Active.
